In ChEMBL document CHEMBL3832071, “DailyMed|setid=56428c8f-8a4b-4cbf-93f1-28d8b5cfb51a | MYCOPHENOLATE MOFETIL- mycophenolate mofetil capsule|MYCOPHENOLATE MOFETIL- mycophenolate mofetil tablet, film coated | Cadila Healthcare Limited”:
Values joined by “and” are separate entries in the source; they are usually repeats but may differ in a detail not shown here. Equal entries are not always repeated.

How the values were obtained:
Format in all cases: ADME, organism-based
Homo sapiens [1] = test: Pharmacokinetic parameters for Mycophenolic acid following single oral administration of Mycophenolate Mofetil to subjects with different health status.; set-up: dose 1 g, route oral; settings: in vivo, dosed compound id 90, dosed compound name MYCOPHENOLATE MOFETIL, gender male and female, regimen Single dose, tissue Plasma
Homo sapiens [2] = test: Pharmacokinetic parameters for Mycophenolic acid following multiple administration of Mycophenolate Mofetil to hepatic, cardiac and renal transplant patients, at least 5 days after transplant.; set-up: dose 600 mg/m2, dose 1.5 g, dose 1 g, route oral, route iv; settings: in vivo, 120 h, dosed compound id 90, dosed compound name MYCOPHENOLATE MOFETIL, gender male and female, regimen Twice daily, tissue Plasma
Homo sapiens [3] = test: Apparent Volume of distribution (Vd) of […] following oral and intravenous (IV) administration of Mycophenolate Mofetil to 12 healthy volunteers; settings: in vivo, dosed compound id 90, dosed compound name MYCOPHENOLATE MOFETIL, gender male and female, tissue Plasma

COc1c(C)c2c(c(O)c1C/C=C(\C)CCC(=O)O)C(=O)OC2 [MYCOPHENOLIC ACID]
Tmax (Homo sapiens [1]; dose 1 g, route oral): 0.8 h and 0.75 h and 0.63 h and 1 h and 0.85 h | AUC(0-48) (Homo sapiens [1]): 29800 ng·h/mL | AUC(0-96) (Homo sapiens [1]): 45000 ng·h/mL and 59900 ng·h/mL and 78600 ng·h/mL | Cmax (Homo sapiens [1]): 24500 ng/mL and 25300 ng/mL and 16300 ng/mL and 22400 ng/mL | Total AUC (Homo sapiens [1]): 63900 ng·h/mL | AUC(0-12) (Homo sapiens [2]; sampling time1 4 hours): 54.1 µg·h/mL | AUC(0-12) (Homo sapiens [2]): 43.3 mcg.hr/mL [middle of 21 runs] | Tmax (Homo sapiens [2]; iv, dose 1 g): 1.58 h and 1.5 h | Tmax (Homo sapiens [2]; po, dose 1 g): 1.33 h and 1.31 h | Tmax (Homo sapiens [2]; po, dose 1.5 g): 1.15 hr [middle of 5 runs] | Vd (Homo sapiens [3]; iv): 3.6 L/kg | Vd (Homo sapiens [3]; po): 4 L/kg
